Test results taken from ChEMBL document CHEMBL4138229, “Recent discovery of indoleamine-2,3-dioxygenase 1 inhibitors targeting cancer immunotherapy” (Eur J Med Chem, 2018).
Values belong to the compound of their own block, whether it stands above or below them.

What was measured:
[1] = biological target: T1, Tryptophan 2,3-dioxygenase (Homo sapiens, UniProt P48775); assay: Inhibition of human TDO expressed in T-REx-293 cells; format: cell-based
[2] = biological target: T1, Tryptophan 2,3-dioxygenase; assay: Inhibition of TDO (unknown origin)
[3] = biological target: T2, Indoleamine 2,3-dioxygenase 1 (Homo sapiens, UniProt P14902); assay: Inhibition of IDO1 in human HeLa cells assessed as reduction in kynurenine production; format: cell-based
[4] = biological target: T2, Indoleamine 2,3-dioxygenase 1; assay: Inhibition of IDO1 (unknown origin) after 60 mins
[5] = biological target: Indoleamine 2,3-dioxygenase 1 (Mus musculus, UniProt P28776); assay: Inhibition of IDO1 in mouse P815 Clone 12 cells assessed as reduction in kynurenine production incubated for 16 to 18 hrs; format: cell-based
[6] = biological target: T2, Indoleamine 2,3-dioxygenase 1; assay: Inhibition of IDO1 in human HeLa assessed as reduction in kynurenine production; format: cell-based
[7] = biological target: T2, Indoleamine 2,3-dioxygenase 1; assay: Inhibition of human IDO1 assessed as reduction in kynurenine production
[8] = biological target: T2, Indoleamine 2,3-dioxygenase 1; assay: Inhibition of IDO1 (unknown origin) assessed as reduction in kynurenine production by spectraphotometric assay
[9] = biological target: T3, Indoleamine 2,3-dioxygenase 2 (Homo sapiens, UniProt Q6ZQW0); assay: Inhibition of human IDO2 using Trp as substrate after 90 mins by Bridge-IT tryptophan fluorescence assay
T3 sequence (Q6ZQW0 whole entry): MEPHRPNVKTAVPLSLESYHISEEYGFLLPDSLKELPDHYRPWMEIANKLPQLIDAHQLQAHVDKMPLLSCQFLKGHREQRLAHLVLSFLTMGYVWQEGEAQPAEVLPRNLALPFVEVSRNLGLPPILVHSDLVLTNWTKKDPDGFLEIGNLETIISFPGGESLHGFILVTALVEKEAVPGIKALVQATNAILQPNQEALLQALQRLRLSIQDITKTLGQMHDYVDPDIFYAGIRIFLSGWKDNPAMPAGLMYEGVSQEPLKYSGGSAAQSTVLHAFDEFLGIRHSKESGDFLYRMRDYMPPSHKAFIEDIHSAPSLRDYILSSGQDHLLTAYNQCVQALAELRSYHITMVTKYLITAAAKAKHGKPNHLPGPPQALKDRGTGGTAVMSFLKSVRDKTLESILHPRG

[10] = biological target: T1, Tryptophan 2,3-dioxygenase; assay: Inhibition of human TDO using Trp as substrate after 90 mins by Bridge-IT tryptophan fluorescence assay

T1 sequence (P48775 whole entry): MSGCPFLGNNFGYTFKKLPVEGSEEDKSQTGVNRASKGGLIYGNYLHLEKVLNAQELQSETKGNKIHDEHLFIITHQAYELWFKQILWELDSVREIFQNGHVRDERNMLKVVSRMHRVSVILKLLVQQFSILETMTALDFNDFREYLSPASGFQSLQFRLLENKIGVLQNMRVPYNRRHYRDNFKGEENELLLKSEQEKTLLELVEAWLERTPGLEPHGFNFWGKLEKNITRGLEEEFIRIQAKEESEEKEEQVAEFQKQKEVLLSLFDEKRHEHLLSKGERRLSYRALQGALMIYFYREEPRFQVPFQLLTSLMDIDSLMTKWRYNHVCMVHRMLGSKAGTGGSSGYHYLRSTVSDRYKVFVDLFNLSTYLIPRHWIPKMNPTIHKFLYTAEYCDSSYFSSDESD
T2 sequence (P14902 whole entry): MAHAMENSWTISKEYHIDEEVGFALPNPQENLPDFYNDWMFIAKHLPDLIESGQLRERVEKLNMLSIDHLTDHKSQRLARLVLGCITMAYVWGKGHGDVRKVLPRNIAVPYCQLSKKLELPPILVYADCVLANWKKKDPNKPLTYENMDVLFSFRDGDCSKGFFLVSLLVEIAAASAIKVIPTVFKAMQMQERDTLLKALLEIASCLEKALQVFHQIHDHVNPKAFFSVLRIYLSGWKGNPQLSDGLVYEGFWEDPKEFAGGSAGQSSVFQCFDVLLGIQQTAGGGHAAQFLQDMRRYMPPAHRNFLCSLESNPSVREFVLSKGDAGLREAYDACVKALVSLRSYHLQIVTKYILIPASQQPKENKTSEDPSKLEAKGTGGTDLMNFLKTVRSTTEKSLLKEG
Sequence of Indoleamine 2,3-dioxygenase 1 (Mus musculus, UniProt P28776) (P28776 whole entry): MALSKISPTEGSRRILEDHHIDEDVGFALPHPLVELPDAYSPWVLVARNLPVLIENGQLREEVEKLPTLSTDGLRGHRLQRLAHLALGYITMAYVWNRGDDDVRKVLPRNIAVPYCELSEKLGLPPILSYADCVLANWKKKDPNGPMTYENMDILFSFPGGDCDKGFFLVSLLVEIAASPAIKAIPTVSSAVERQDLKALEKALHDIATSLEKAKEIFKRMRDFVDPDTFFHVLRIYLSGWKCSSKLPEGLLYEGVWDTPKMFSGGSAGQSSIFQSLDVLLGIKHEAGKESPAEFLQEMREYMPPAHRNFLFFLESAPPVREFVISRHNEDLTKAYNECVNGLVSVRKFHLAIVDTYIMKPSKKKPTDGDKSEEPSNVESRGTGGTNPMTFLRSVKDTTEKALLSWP

Structure (SMILES): CS(=O)(=NC#N)NCCNc1nonc1/C(=N/O)Nc1ccc(F)c(Br)c1 (stereo unspecified)
IC50 [3]: 1.8 nM | IC50 [4]: 11 nM

Structure (SMILES): O=C1CC(c2c[nH]c3ccc(F)cc23)C(=O)N1 (stereo unspecified) [PF-06840003]
IC50 [5]: 94 nM | IC50 [2]: > 50000 nM

Structure (SMILES): O/N=C(/CCC1CCCCC1)Nc1cccc(Cl)c1
IC50 [8]: < 1000 nM

Structure (SMILES): Cc1ccc(-c2csc3nnc(SCC(=O)Nc4ccc5c(c4)OCO5)n23)cc1
IC50 [9]: > 250000 nM | IC50 [10]: > 62500 nM

The next lines start with the values.

IC50 [1]: 1500 nM | IC50 [2]: 140 nM
Structure (SMILES): O[C@H](C[C@H]1c2c(F)cccc2-c2cncn21)[C@H]1CC[C@H](O)CC1 [NAVOXIMOD]

IC50 [6]: 3 nM | IC50 [7]: 18 nM
Structure (SMILES): NS(=O)(=O)NC1(CCNc2nonc2/C(=N/O)Nc2ccc(F)c(Br)c2)CC1
